Data on seven molecules can be found in US20240294478A1, “ANTI-CANCER COMPOUNDS AND METHODS OF USE” (YALE UNIVERSITY, priority 2021, published 2024).

The test system of one assay is LN229 MGMT+/MMR− cells. In words: Short-term cell viability assay, LN229 MGMT+/MMR- (shRNA targeting MSH2). The conditions noted are these: Homo sapiens. The format is cell-based. Here is the method: (§1) LN229 MGMT- and MGMT+ cell lines were a gift from B. Kaina (Johannes Gutenberg University Mainz, Mainz, Germany) and grown in Gibco® Duilbecco's Modified Eagle Medium with 10% fetal bovine serum (DMEM). For each compound tested, the relationship between MGMT status and MMR status and compound activity, in terms of IC50 values ([…]), was determined by the following method. On day 1, LN229 isogenic cells of varying MGMT and MMR status were seeded in 96 well format at a density of 2000 cells/well in 100 μL of DMEM media and allowed to adhere overnight. On day 2, a drug master plate was made with 100×the desired maximal concentration of test compound and serially diluted by 2 until 100×the minimal desired concentration, with one DMSO control. Then daughter plates were created with varied concentrations from 3-times the minimal concentration to 3-times the maximal desired concentration. Afterwards, 50 μL of daughter drug plate was added to 100 μL of the seeded cells for a final concentration of 1×in triplicate. Cells were allowed to grow for 6 days. On day 7, the cells were fixed, and stained with Hoechst nuclear dye and imaged to determine growth inhibition.
(§2) For each compound tested, the relationship between MGMT status and MMR status and compound activity, in terms of IC50 values (in μM), was determined. In addition, for each compound, the therapeutic index (TI) was calculated, according to the equation MGMT TI=IC50 (MGMT+/MMR+) divided by IC50 (MGMT−/MMR+). The T1 indicates the efficacy of a compound in treating the targeted MGMT-cancer cells as compared to potential for the same compound to damage, or have adverse effects against, normal cells which are MGMT+cells, The higher the value of the TI, the safer the compound is. […] MMR RI (resistance index)=IC50 (MGMT−/MMR−) divided by IC50 (MGMT−/MMR+). The higher the value of the RI, the less likely that resistance to the compound will develop.
(§3) Short-term Cell Viability Assay. Cells were seeded in 96-well plates at 1000 or 2000 cells/well and allowed to adhere at 23° C. for 60 min and then incubated overnight at 37° C. Cells were treated with indicated concentrations of compounds in triplicate for 4-6 days prior to fixation with 3.7% paraformaldehyde and nuclear staining with 1 μg/mL Hoechst 33342 dye. Cells were imaged on a Cytation 3 imaging reader (BioTek) and quantified using CellProfiler software. For in vitro short-term growth delay experiments, IC50 values were determined from the nonlinear regression equation, [inhibitor] vs normalized response with variable slope.

In a further assay the test system is LN229 MGMT−/MMR+ cells. In words: Short-term cell viability assay, LN229 MGMT-/MMR+. Conditions: for IC50: Homo sapiens, read-out: IC50 against LN229 cell lines, MGMT− MMR+; for TI / RI, in words: LN229 isogenic lines; for MGMT− TI (therapeutic index): IC50 (MGMT+/MMR+) divided by IC50 (MGMT−/MMR+). Type of assay: cell-based, human. Here is the method: as §1, §2, §3

For another assay, the system named is MGMT− LN229 cells. In words: Clonogenic survival assay, LN229 MGMT- cells. The format is cell-based, human. The protocol: (§4) In vitro clonogenic survival assays (CSAs) were performed using four isogenic LN229 glioblastoma cell lines.
(§5) Clonogenic Cell Survival Assay. Cells of each line were pretreated with the test drug in culture for 48-72 hours at the specified dilutions. The cells were then immediately seeded in six-well plates in triplicate at three-fold dilutions, ranging from 9000 to 37 cells per well. Depending on colony size, these plates were kept in the incubator for 10 to 14 days. After incubation, colonies were washed in phosphate-buffered saline (PBS) and stained with crystal violet. Colonies were counted by hand. Counts were normalized to plating efficiency of the corresponding treatment condition.

The subject of another assay is LN229 MGMT+/MMR+ cells. In words: Short-term cell viability assay, LN229 MGMT+/MMR+. The conditions noted are these: Homo sapiens, read-out: IC50 against LN229 cell lines, MGMT+ MMR+. The format is cell-based. The protocol: as §1, §2, §3
Another assay has as its system LN229 MGMT−/MMR− cells. In words: Short-term cell viability assay, LN229 MGMT-/MMR- (shRNA targeting MSH2). The conditions noted are these: for IC50: Homo sapiens, read-out: IC50 against LN229 cell lines, MGMT− MMR−; for activity in MGMT−/MMR− cells, in words: LN229 MGMT−/MMR−; for MGMT− RI (resistance index): IC50 (MGMT−/MMR−) divided by IC50 (MGMT−/MMR+). Type of assay: cell-based, human. The protocol: as §1
For each compound tested, the relationship between MGMT status and MMR status and compound activity, in terms of IC50 values (in μM), was determined. In addition, for each compound, the therapeutic index (TI) was calculated, according to the equation MGMT TI=IC50 (MGMT+/MMR+) divided by IC50 (MGMT−/MMR+). […] MMR RI (resistance index)=IC50 (MGMT−/MMR−) divided by IC50 (MGMT−/MMR+).
Short-term Cell Viability Assay. Cells were seeded in 96-well plates at 1000 or 2000 cells/well and allowed to adhere at 23° C. for 60 min and then incubated overnight at 37° C. […] Cells were imaged on a Cytation 3 imaging reader (BioTek) and quantified using CellProfiler software. For in vitro short-term growth delay experiments, IC50 values were determined from the nonlinear regression equation, [inhibitor] vs normalized response with variable slope.

The next assay deals with MGMT+ LN229 cells. In words: Clonogenic survival assay, LN229 MGMT+ cells. Type of assay: cell-based, human. The protocol:
as §4, §5

Assay [1] deals with four isogenic LN229 glioblastoma cell lines. In words: Short-term cell viability assays, statements across the isogenic lines. The format is cell-based, human. Conditions: regardless of MMR status. The protocol: as §1, §2, §3
Another assay concerns MGMT−/MMR− cells. In words: IR alkaline comet assay, LN229 MGMT-/MMR-, time course. Type of assay: cell-based, human. Conditions: time points 2-24 h. Here is the method: The IR alkaline comet assay, adapted for ICL detection was performed to determine if ICLs were formed in MGMT-cells treated with KL-50. In this assay, cells were sequentially exposed to genotoxins and ionizing radiation, and then analyzed by single cell alkaline gel electrophoresis. Attenuation of the IR-induced comet tail is indicative of ICL formation.
IR Alkaline Comet Assay. This assay was performed utilizing the CometAssay™ Kit (Trevigen) according to the alkaline assay protocol, with the addition of slide irradiation post-lysis. Cells were trypsinized, washed with 1×PBS, added to melted Comet LMAgarose (Trevigen), and spread on Trevigen CometSlides at a density of 1000 cells per sample in 50 μL. Lysis solution (Trevigen) with 10% DMSO was added overnight at 4° C. Slides were removed from lysis buffer and irradiated to 0 or 10 Gy using an XRAD 320 X-Ray System (Precision X-Ray) at 320 kV, 12.5 mA, and 50.0 cm SSD, with a 2 mm Al filter and 20 cm×20 cm collimator. Slides were then placed in alkaline buffer (200 mM NaOH, 1 mM EDTA) for 45 min, followed by electrophoresis in 850 mL alkaline buffer for 45 min at 4° C. Slides were washed and stained with SYBR gold (Invitrogen) per Trevigen assay protocol. Slides were imaged on a Cytation 3 imaging reader (BioTek), and comets were analyzed using CometScore 2.0 software (TriTek).

Setting [2] is: LN-229, Table II, read-out: IC50 against LN229 cell lines, MGMT MMR−.
Setting [3] is: LN-229, 144 h, Table 1, 6 days growth, read-out: IC50 against LN229 cell lines, MGMT+ MMR−.
The mark [4] stands for this setting: LN-229, 144 h, Table 1, 6 days growth.
Setting [5] is: LN-229, 144 h, Table 1, 6 days growth, Hoechst nuclear count.

The structures appear in SMILES notation. Read-outs that look alike come from different tables or passages of the source.

Consider `O=NN(CCCl)C(=O)NC1CCCCC1` [CCNU, 1-(2-chloroethyl)-3-cyclohexyl-1-nitrosourea, reference compound], for which the 50% inhibitory concentration (IC50) was 26.8 ± 7.3 µM in the assay with LN229 MGMT+/MMR− cells (setting [2]); 6.3 ± 0.3 µM with LN229 MGMT−/MMR+ cells (LN-229, Table II); 21.6 ± 3.2 µM with LN229 MGMT+/MMR+ cells (LN-229, Table II); 4.2 ± 0.2 µM in the assay with LN229 MGMT−/MMR− cells (LN-229, Table II). The “TI / RI, in words” value in the assay with LN229 MGMT−/MMR+ cells was “poor TI”. The “MGMT− TI (therapeutic index)” value in the assay with LN229 MGMT−/MMR+ cells (Table II) was determined as 3.4. In the assay with MGMT− LN229 cells (isogenic cells lacking MMR), the “clonogenic survival, activity in MMR− cells” value was “effective in MMR− cells”. For the same molecule, the “activity in MGMT−/MMR− cells, in words” value in the assay with LN229 MGMT−/MMR− cells was “effective against MGMT−/MMR− cells”. In addition, in the assay with LN229 MGMT−/MMR− cells (Table II), the “MGMT− RI (resistance index)” value is recorded as 0.7. The “clonogenic survival, activity in MGMT+ cells” value with MGMT+ LN229 cells (irrespective of MMR status) is “cytotoxic to MGMT+cells”.

On to `NC(=O)c1nc[nH]c1/N=N/N(CCF)C(=O)OCc1ccccc1` [Compound E4], for which the IC50 worked out at 11 ± 1 µM in the assay with LN229 MGMT+/MMR− cells (setting [3]), 8 ± 1 µM in the assay on LN229 MGMT−/MMR+ cells (setting [4]), 14 ± 1 µM in the assay on LN229 MGMT+/MMR+ cells (setting [5]) and 17 ± 1 µM in the assay on LN229 MGMT−/MMR− cells (setting [4]).

With `NC(=O)c1nc[nH]c1/N=N/N(CCF)C(=O)Cc1ccccc1` [Compound E2, (E)-5-(3-(2-fluoroethyl)-3-(2-phenylacetyl)triaz-1-en-1-yl)-1H-imidazole-4-carboxamide], the IC50 in the assay on LN229 MGMT+/MMR− cells (setting [3]) was 72 ± 30 µM; in the assay on LN229 MGMT−/MMR+ cells (setting [4]) it was 28 ± 1 µM; in the assay on LN229 MGMT+/MMR+ cells (setting [5]), greater than 100 µM; in the assay with LN229 MGMT−/MMR− cells (setting [4]), 21 ± 1 µM.

As for `CC(=O)N(CCF)/N=N/c1[nH]cnc1C(N)=O` [Compound E3, (E)-5-(3-acetyl-3-(2-fluoroethyl)triaz-1-en-1-yl)-1H-imidazole-4-carboxamide], the IC50 was greater than 100 µM in the assay on LN229 MGMT+/MMR− cells (setting [3]), 40 ± 2 µM in the assay with LN229 MGMT−/MMR+ cells (setting [4]), greater than 100 µM in the assay on LN229 MGMT+/MMR+ cells (setting [5]) and 46 ± 4 µM in the assay on LN229 MGMT−/MMR− cells (setting [4]). In the assay with LN229 MGMT−/MMR− cells, the “activity in MGMT−/MMR− cells, in words” value is given as “exquisite sensitivity”. The “activity in MGMT+ cells, in words” value in assay [1] is “limited activity”.

With `NC(=O)c1[nH]cnc1/N=N/NCCF` [Compound E1, 5-[(1E)-3-(2-fluoroethyl)triaz-1-en-1-yl]-1H-imidazole-4-carboxamide], the IC50 in the assay with LN229 MGMT+/MMR− cells (setting [3]) is greater than 100 µM; in the assay on LN229 MGMT−/MMR+ cells (setting [4]) it was 24 ± 2 µM; in the assay with LN229 MGMT+/MMR+ cells (setting [5]) it was greater than 100 µM; in the assay with LN229 MGMT−/MMR− cells (setting [4]), 22 ± 1 µM. Moreover, the “surviving fraction of MGMT− cells” value in the assay with MGMT− LN229 cells (at less than 100 μM of E1, regardless of MMR status) is reported as “dropped sharply”. Further, the “activity in MGMT−/MMR− cells, in words” value in the assay on LN229 MGMT−/MMR− cells was “exquisite sensitivity”. Besides, the “activity in MGMT+ cells, in words” value in assay [1] was “limited activity”. The “surviving fraction of MGMT+ cells” value in the assay with MGMT+ LN229 cells (at concentrations as high as 1000 μM of E1) was “above 0.1”; in the assay with MGMT+ LN229 cells (at the same concentration (less than 100 μM of E1), regardless of MMR status), roughly 1.0.

Consider `CN(CCF)/N=N/c1nc[nH]c1C(N)=O` [Compound E5, 4-[(1E)-3-(2-fluoroethyl)-3-methyltriaz-1-en-1-yl]-1H-imidazole-5-carboxamide], for which the IC50 was greater than 100 µM with LN229 MGMT+/MMR− cells (LN-229, 144 h, read-out: IC50 against LN229 cell lines, MGMT+ MMR−); 14.2 ± 1 µM in the assay with LN229 MGMT−/MMR+ cells (LN-229, 144 h); greater than 199 µM in the assay on LN229 MGMT+/MMR+ cells (LN-229, 144 h); greater than 100 µM in the assay with LN229 MGMT−/MMR− cells (LN-229, 144 h).

Take `NC(=O)c1ncn2c(=O)n(CCCl)nnc12` [MTZ, 3-(2-chloroethyl)-4-oxoimidazo[5,1-d][1,2,3,5]tetrazine-8-carboxamide, reference compound]: the IC50 in the assay on LN229 MGMT+/MMR− cells (setting [2]) worked out at 50.8 ± 4.2 µM; with LN229 MGMT−/MMR+ cells (LN-229, Table II) it was 9 ± 0.4 µM; with LN229 MGMT+/MMR+ cells (LN-229, Table II), 61.9 ± 4.7 µM; in the assay with LN229 MGMT−/MMR− cells (LN-229, Table II), 6.9 ± 0.7 µM. In addition, the “TI / RI, in words” value in the assay with LN229 MGMT−/MMR+ cells is recorded as “poor TI”. Besides, the “MGMT− TI (therapeutic index)” value in the assay on LN229 MGMT−/MMR+ cells (Table II) is on record as 6.9. The “DNA damage in unirradiated samples” value in the assay on MGMT−/MMR− cells is listed as “maximal damage at 2 h”. In addition, in the assay on MGMT−/MMR− cells, the “DNA mobility after IR, rate of ICL formation” value is recorded as “reduced DNA mobility within 2 h”. In the assay on LN229 MGMT−/MMR− cells, the “activity in MGMT−/MMR− cells, in words” value was “effective against MGMT−/MMR− cells”. Moreover, the “MGMT− RI (resistance index)” value in the assay on LN229 MGMT−/MMR− cells (Table II) turned out to be 0.8.

Usually IC50 stands for the midpoint of a concentration-inhibition curve.
